From patent publication US20230071840A1, “HETEROCYCLIC GLP-1 AGONISTS” (Gasherbrum Bio, Inc., priority 2020, published 2023)

Molecular target: GLP-1 Receptor (Homo sapiens, UniProt P43220)
Assay: GLP-1R agonist cAMP stimulation assay (HEK293/GLP1R/CRE-LUC cells, cAMP dynamic 2 kit)
Type: cell-based
Conditions: HEK293/CRE-Luc cell line stably expressing the GLP-1 Receptor; 30 min incubation at 37° C.; read-out: GLP1R cAMP Stimulation DR: EC50
Experimental: Activation of GLP-1 receptor is known to stimulate cyclic AMP (cAMP) production in cells which indicates primary coupling to the Gas subunit of the G protein heterotrimeric complex.
To optimize functional activity directed toward Gas coupling, a HEK293/CRE-Luc cell line developed by HDB stably expressing the GLP-1 Receptor was used. […] Seal the plate and incubate at 37° C. with 5% CO2 for 30 min.
After incubation the cAMP assay signal was generated using cAMP dynamic 2 Kit (Cisbio). 5 μL cAMP-d2 working solution was added to each well, followed with 5 μL Anti-cAMP antibody-cryptate working solution added to each well using ThermoFisher Multidrop Combi. Incubate at room temperature for 1 hour protected from light.
% Activity=[…]×(mean RLU of test sample−mean RLU of vehicle control)/(mean RLU of MAX control−mean RLU of vehicle control))

Sequence of GLP-1 Receptor (P43220 24-463, species assumed): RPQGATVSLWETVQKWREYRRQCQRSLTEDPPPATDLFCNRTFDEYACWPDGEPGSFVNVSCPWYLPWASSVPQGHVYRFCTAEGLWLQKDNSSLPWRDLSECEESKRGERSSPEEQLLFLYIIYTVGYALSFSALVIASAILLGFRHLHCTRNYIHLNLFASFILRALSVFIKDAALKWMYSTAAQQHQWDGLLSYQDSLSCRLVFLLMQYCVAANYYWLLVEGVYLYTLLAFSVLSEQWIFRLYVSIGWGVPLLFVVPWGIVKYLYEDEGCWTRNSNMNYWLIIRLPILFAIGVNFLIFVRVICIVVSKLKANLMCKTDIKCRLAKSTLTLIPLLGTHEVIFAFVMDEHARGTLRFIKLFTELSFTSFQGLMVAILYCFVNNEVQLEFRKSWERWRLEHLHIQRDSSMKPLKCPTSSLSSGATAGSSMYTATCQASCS

Row | Structure (SMILES) | EC50
1 | O=C(O)c1ccc2nc(CN3CCC(Oc4cccc(Cn5ccc(Cl)cc5=O)n4)CC3)n(C[C@@H]3CCO3)c2n1 [Compound 149a, 2-{[4-({6-[(4-chloro-2-oxo-1,2-dihydropyridin-1-yl)methyl]pyridin-2-yl}oxy)piperidin-1-yl]methyl}-3-{[(2S)-oxetan-2-yl]methyl}-3H-imidazo[4,5-b]pyridine-5-carboxylic acid] | 5.6 nM
2 | O=C(O)c1ccc2nc(CN3CCC(Oc4cncc(Cc5ccc(Cl)cc5)n4)CC3)n(C[C@@H]3CCO3)c2n1 [Compound 153a, 2-{[4-({6-[(4-chlorophenyl)methyl]pyrazin-2-yl}oxy)piperidin-1-yl]methyl}-3-{[(2S)-oxetan-2-yl]methyl}-3H-imidazo[4,5-b]pyridine-5-carboxylic acid] | 0.14 nM
3 | Cc1cc(Cc2ccc(Cl)cc2)nc(OC2CCN(Cc3nc4ccc(C(=O)O)nc4n3C[C@@H]3CCO3)CC2)c1 [Compound 154a, 2-{[4-({6-[(4-chlorophenyl)methyl]-4-methylpyridin-2-yl}oxy)piperidin-1-yl]methyl}-3-{[(2S)-oxetan-2-yl]methyl}-3H-imidazo[4,5-b]pyridine-5-carboxylic acid] | 24 nM
4 | O=C(O)c1ccc2nc(CN3CCC(Oc4cccc(Cc5ccc(Cl)cc5)c4F)CC3)n(C[C@@H]3CCO3)c2n1 [Compound 157a, 2-[(4-{3-[(4-chlorophenyl)methyl]-2-fluorophenoxy}piperidin-1-yl)methyl]-3-{[(2S)-oxetan-2-yl]methyl}-3H-imidazo[4,5-b]pyridine-5-carboxylic acid] | 42 nM
5 | O=C(O)c1ccc2nc(CN3CCC(Oc4cccc(Cc5ccc(Cl)cc5)c4Cl)CC3)n(C[C@@H]3CCO3)c2n1 [Compound 158a, 2-[(4-{2-chloro-3-[(4-chlorophenyl)methyl]phenoxy}piperidin-1-yl)methyl]-3-{[(2S)-oxetan-2-yl]methyl}-3H-imidazo[4,5-b]pyridine-5-carboxylic acid] | > 1000 nM
6 | O=C(O)c1ccc2nc(CN3CCC(Oc4ccnc(Cc5ccc(Cl)cc5)c4)CC3)n(C[C@@H]3CCO3)c2n1 [Compound 159a, 2-{[4-({2-[(4-chlorophenyl)methyl]pyridin-4-yl}oxy)piperidin-1-yl]methyl}-3-{[(2S)-oxetan-2-yl]methyl}-3H-imidazo[4,5-b]pyridine-5-carboxylic acid] | 2.3 nM
7 | N#CC1(Cn2c(CN3CCC(Oc4ccnc(Cc5ccc(Cl)cc5F)n4)CC3)nc3ccc(C(=O)O)cc32)CC1 [Compound 162, 2-{[4-({2-[(4-chloro-2-fluorophenyl)methyl]pyrimidin-4-yl}oxy)piperidin-1-yl]methyl}-1-[(1-cyanocyclopropyl)methyl]-1H-1,3-benzodiazole-6-carboxylic acid] | 0.075 nM
8 | O=C(O)c1ccc2nc(CN3CCC(C(F)(F)c4cccc(Cc5ccc(Cl)cc5F)n4)CC3)n(C[C@@H]3CCO3)c2n1 [Compound 173a, 2-{[4-({6-[(4-chloro-2-fluorophenyl)methyl]pyridin-2-yl}difluoromethyl)piperidin-1-yl]methyl}-3-{[(2S)-oxetan-2-yl]methyl}-3H-imidazo[4,5-b]pyridine-5-carboxylic acid] | 3.8 nM
9 | O=C(O)c1ccc2nc(C[C@H]3CC[C@@H](Oc4cccc(Cc5ccc(Cl)cc5F)n4)CC3)n(C[C@@H]3CCO3)c2n1 [Compound 174a, 3-{[(2S)-oxetan-2-yl]methyl}-2-{[cis-4-({6-[(4-chloro-2-fluorophenyl)methyl]pyridin-2-yl}oxy)cyclohexyl]methyl}-3H-imidazo[4,5-b]pyridine-5-carboxylic acid] | 29 nM
10 | O=C(O)c1ccc2nc(C[C@H]3CC[C@H](Oc4cccc(Cc5ccc(Cl)cc5F)n4)CC3)n(C[C@@H]3CCO3)c2n1 [Compound 174b, 3-{[(2S)-oxetan-2-yl]methyl}-2-{[trans-4-({6-[(4-chloro-2-fluorophenyl)methyl]pyridin-2-yl}oxy)cyclohexyl]methyl}-3H-imidazo[4,5-b]pyridine-5-carboxylic acid] | 0.14 nM

Now from value to compound:

Row | EC50 | Structure (SMILES)
11 | 68 nM | O=C(O)c1ccc2nc(CN3CCC(Oc4ccc(F)c(Cc5ccc(Cl)cc5F)n4)CC3)n(C[C@@H]3CCO3)c2n1 [Compound 150a, (S)-2-((4-((6-(4-chloro-2-fluorobenzyl)-5-fluoropyridin-2-yl)oxy)piperidin-1-yl)methyl)-3-(oxetan-2-ylmethyl)-3H-imidazo[4,5-b]pyridine-5-carboxylic acid]
12 | 0.085 nM | O=C(O)c1ccc2nc(CN3CCC(Oc4nc(Cc5ccc(Cl)cc5F)ncc4F)CC3)n(C[C@@H]3CCO3)c2n1 [Compound 151a, (S)-2-((4-((2-(4-chloro-2-fluorobenzyl)-5-fluoropyrimidin-4-yl)oxy)piperidin-1-yl)methyl)-3-(oxetan-2-ylmethyl)-3H-imidazo[4,5-b]pyridine-5-carboxylic acid]
13 | 0.038 nM | O=C(O)c1ccc2nc(CN3CCC(Oc4ccnc(Cc5ccc(Cl)cc5)n4)CC3)n(C[C@@H]3CCO3)c2n1 [Compound 152a, 2-{[4-({2-[(4-chlorophenyl)methyl]pyrimidin-4-yl}oxy)piperidin-1-yl]methyl}-3-{[(2S)-oxetan-2-yl]methyl}-3H-imidazo[4,5-b]pyridine-5-carboxylic acid]
14 | 3.8 nM | O=C(O)c1ccc2nc(CN3CCC(Oc4cc(Cl)cc(Cc5ccc(Cl)cc5)n4)CC3)n(C[C@@H]3CCO3)c2n1 [Compound 155a, 2-{[4-({4-chloro-6-[(4-chlorophenyl)methyl]pyridin-2-yl}oxy)piperidin-1-yl]methyl}-3-{[(2S)-oxetan-2-yl]methyl}-3H-imidazo[4,5-b]pyridine-5-carboxylic acid]
15 | 40 nM | O=C(O)c1ccc2nc(CN3CCC(Oc4cc(C(F)(F)F)cc(Cc5ccc(Cl)cc5)n4)CC3)n(C[C@@H]3CCO3)c2n1 [Compound 156a, 2-{[4-({6-[(4-chlorophenyl)methyl]-4-(trifluoromethyl)pyridin-2-yl}oxy)piperidin-1-yl]methyl}-3-{[(2S)-oxetan-2-yl]methyl}-3H-imidazo[4,5-b]pyridine-5-carboxylic acid]
16 | 0.12 nM | O=C(O)c1ccc2nc(CN3CCC(Oc4ccnc(Cc5ccc(Cl)cc5F)n4)CC3)n(C[C@@H]3CCO3)c2c1 [Compound 160a, 2-{[4-({2-[(4-chloro-2-fluorophenyl)methyl]pyrimidin-4-yl}oxy)piperidin-1-yl]methyl}-1-{[(2S)-oxetan-2-yl]methyl}-1H-1,3-benzodiazole-6-carboxylic acid]
17 | 0.18 nM | O=C(O)c1cnc2nc(CN3CCC(Oc4ccnc(Cc5ccc(Cl)cc5F)n4)CC3)n(C[C@@H]3CCO3)c2c1 [Compound 161a, 2-{[4-({2-[(4-chloro-2-fluorophenyl)methyl]pyrimidin-4-yl}oxy)piperidin-1-yl]methyl}-1-{[(2S)-oxetan-2-yl]methyl}-1H-imidazo[4,5-b]pyridine-6-carboxylic acid]
18 | 0.11 nM | O=C(O)c1ccc2nc(CN3CCC(Oc4ccnc(Cc5ccc(C(F)(F)F)cc5F)n4)CC3)n(C[C@@H]3CCO3)c2n1 [Compound 163a, 2-({4-[(2-{[2-fluoro-4-(trifluoromethyl)phenyl]methyl}pyrimidin-4-yl)oxy]piperidin-1-yl}methyl)-3-{[(2S)-oxetan-2-yl]methyl}-3H-imidazo[4,5-b]pyridine-5-carboxylic acid]
19 | 0.11 nM | O=C(O)c1ccc2nc(CN3CCC(Oc4ccnc(Cc5ccc(Cl)cc5Cl)n4)CC3)n(C[C@@H]3CCO3)c2n1 [Compound 164a, 2-{[4-({2-[(2,4-dichlorophenyl)methyl]pyrimidin-4-yl}oxy)piperidin-1-yl]methyl}-3-{[(2S)-oxetan-2-yl]methyl}-3H-imidazo[4,5-b]pyridine-5-carboxylic acid]
20 | 1 nM | O=C(O)c1ccc2nc(CN3CCC(Oc4ccnc(Cc5ccc(Cl)cc5C(F)(F)F)n4)CC3)n(C[C@@H]3CCO3)c2n1 [Compound 166a, 2-({4-[(2-{[4-chloro-2-(trifluoromethyl)phenyl]methyl}pyrimidin-4-yl)oxy]piperidin-1-yl}methyl)-3-{[(2S)-oxetan-2-yl]methyl}-3H-imidazo[4,5-b]pyridine-5-carboxylic acid]
21 | 0.13 nM | O=C(O)c1ccc2nc(CN3CCC(Oc4ccnc(Cc5ccc(Cl)c(Cl)c5)n4)CC3)n(C[C@@H]3CCO3)c2n1 [Compound 167a, 2-{[4-({2-[(3,4-dichlorophenyl)methyl]pyrimidin-4-yl}oxy)piperidin-1-yl]methyl}-3-{[(2S)-oxetan-2-yl]methyl}-3H-imidazo[4,5-b]pyridine-5-carboxylic acid]
22 | 1.2 nM | O=C(O)c1ccc2nc(CN3CCC(Oc4ccnc(Cc5ccc(Cl)cc5F)n4)C(F)(F)C3)n(C[C@@H]3CCO3)c2n1 (stereo partly drawn) [Compound 168a, 2-{[4-({2-[(4-chloro-2-fluorophenyl)methyl]pyrimidin-4-yl}oxy)-3,3-difluoropiperidin-1-yl]methyl}-3-{[(2S)-oxetan-2-yl]methyl}-3H-imidazo[4,5-b]pyridine-5-carboxylic acid]
23 | 230 nM | O=C(O)c1ccc2nc(C[C@H]3CC[C@@H](Oc4ccnc(Cc5ccc(Cl)cc5F)n4)CC3)n(C[C@@H]3CCO3)c2n1 [Compound 175a, 3-{[(2S)-oxetan-2-yl]methyl}-2-{[cis-4-({2-[(4-chloro-2-fluorophenyl)methyl]pyrimidin-4-yl}oxy)cyclohexyl]methyl}-3H-imidazo[4,5-b]pyridine-5-carboxylic acid]

Same assay, conditions: HEK293/CRE-Luc cell line stably expressing the GLP-1 Receptor; 30 min incubation at 37° C.; read-out: GLP1R cAMP Stimulation DR: pEC50 (converted)

Row | EC50 | Structure (SMILES)
24 | 0.158 nM | O=C(O)c1ccc2nc(CN3CCC(Oc4cncc(Cc5ccc(Cl)cc5)n4)CC3)n(C[C@@H]3CCO3)c2n1 [Compound 153a, 2-{[4-({6-[(4-chlorophenyl)methyl]pyrazin-2-yl}oxy)piperidin-1-yl]methyl}-3-{[(2S)-oxetan-2-yl]methyl}-3H-imidazo[4,5-b]pyridine-5-carboxylic acid]
25 | 0.1 nM | O=C(O)c1ccc2nc(CN3CCC(Oc4ccnc(Cc5ccc(C(F)(F)F)cc5F)n4)CC3)n(C[C@@H]3CCO3)c2n1 [Compound 163a, 2-({4-[(2-{[2-fluoro-4-(trifluoromethyl)phenyl]methyl}pyrimidin-4-yl)oxy]piperidin-1-yl}methyl)-3-{[(2S)-oxetan-2-yl]methyl}-3H-imidazo[4,5-b]pyridine-5-carboxylic acid]
26 | 0.1 nM | O=C(O)c1ccc2nc(CN3CCC(Oc4ccnc(Cc5ccc(Cl)cc5Cl)n4)CC3)n(C[C@@H]3CCO3)c2n1 [Compound 164a, 2-{[4-({2-[(2,4-dichlorophenyl)methyl]pyrimidin-4-yl}oxy)piperidin-1-yl]methyl}-3-{[(2S)-oxetan-2-yl]methyl}-3H-imidazo[4,5-b]pyridine-5-carboxylic acid]
